Experimental findings from patent US20080145343A1, “Conjugates of biologically active compounds, methods for their preparation and use, formulation and pharmaceutical applications thereof” (priority 2002, published 2008) are described below.

Each structure is given as a SMILES string. Where two headings read alike, the source gives them in different places.

Usually IC50 stands for the point on the concentration scale where inhibition reaches its midpoint.

One series has as its system white blood cells. Kind of series: Immune cell selective uptake from blood cell mix (immune selectivity ratio method). Type of series: cell-based, mammalian. The procedure:
Freshly drawn heparinised blood or buffy coat preparations are used for the determination of immune cell partition ratios. Buffy coat preparations are preferred. These may be obtained from donor blood by simple centrifugation of whole blood (4795 g for 10 minutes). Following centrifugation, plasma is collected from the surface, after which immune cells are expressed from the donor bags along with the erythrocytes lying immediately below the leukocyte layer. This ensures high yields and a sufficient population of erythrocytes for partition. 5 ml of the resulting cell suspension are dispensed into T25 culture flasks. Substrates are added to a final concentration between 1 and 10 μM and the suspensions incubated at 37° C., in a 5% CO2 atmosphere. For analysis of uptake kinetics, samples are withdrawn at 0, 2, 5, 10, 30, 60, 90, 180, or 240 min after substrate addition. For screening purposes, samples are taken at 0 and 120 minutes. […]
Uptake of fluorescent compounds is monitored using fluorescence microscopy. Excitation and emission wavelengths depend of the fluorescence label in use. […]
Cell lysates are analysed using a HP 1100 HPLC System (Agilent Technologies, Waldbronn, Germany) with a Kromasil 3.5μ C18, 50×2.0 mm column and guard cartridge system (both, Phenomenex, Aschaffenburg, Germany) run at 30° C. […]
Masses are monitored according to the known or expected M/Z ratios. […]

For another series, the system named is lymphocytes. Kind of series: Proliferation assay (BrdU ELISA, phytohemagglutanin-stimulated). Type of series: cell-based, mammalian. Conditions: for Ratio (2 h:72 h): IC50 at 2 h : IC50 at 72 h, lower = better uptake and release; for IC50: Lymphocyte. The source says: Assay to determine the in vitro rate of, for example, lymphocyte proliferation. Lymphocytes are purified out of ant coagulated (CPDA, citrate or heparin) mammalian blood using the Lymphoprep™ system (supplier). Purified cells are counted using a hemocytometer following Trypan Blue staining, and a cell concentration of 1×10^6 cells/ml established in RPMi 1640 medium with 10% FCS and antibiotics as required (all from Biochrome). Following the addition of a cell proliferation stimulant, for example phytohemagglutanin (Sigma) at, for example an end concentration of 5 μg/ml, the cells are incubated with different concentrations of the to be investigated compound in 100 μl end volume in a 96-well microtiter plate in an incubator (37° C., 5% CO2, 95% humidity) for 72 h. Cell proliferation is quantified following BrdU incorporation for 16 h by ELISA and subsequent calorimetric development (Cell Proliferation ELISA BrdU (colorimetric) kit from Roche Diagnostics). The IC50 (μM) values are then calculated, and used to compare compound efficacy.
To determine the influence of the T-L-C modification on in vitro cellular drug uptake and pharmacology, the above assay is additionally modified and an additional “wash” step included. In addition to running the assay for 72 h with the compounds to be tested, the assay is also run for just 2 h, then compound is washed away in three serial washing steps using 200 μl of medium at each step, and the cells subsequently incubated for a further 70 h. […] The lower the number, the better the uptake and drug release from the T-L-C in the cells (see results in Table 4 for examples), and improvement over mycophenolic acid.
Background: Dividing cells build labelled thymidine or BrdU into new DNA.

The subject of the next series is E. coli (DH5α). Kind of series: Testing of antibiotic activity (TC50, dilution assay, turbidity). The class given is cell-based. To be noted: concentration that inhibits 50% of the growth. On the procedure: The TC50 or MIC procedure for antibiotic sensitivity testing involves an antibiotic dilution assay, which can be performed in microtitre plates. A series of twofold dilutions of each antibiotic are made in the wells, and then all wells are inoculated with a standard amount of the same test organism. After incubation, growth in the presence of the various antibiotics is observed by measuring turbidity.
Bacteria: B. pumilus and E. coli (DH5α) Bacterial cultures are initiated from the plates for 2 to 3 weeks. After this time period bacteria are streaked out on new plates from the backups stored at −80° C. Due to the lack of resistance of the bacteria, new cultures are not to be initiated from an old plate or any liquid cultures derived from old plates. Growth medium (GM) (per liter): 10 g Bacto-tryptone, 5 g Bacto-yeast extract, 6 g HEPES (25 mM), 5.4 g NaCl, pH 7.3 Compound stocks 10 or 100 mM in DMSO stored at −20° C.
• 1. Grow B. pumilus from an LB agar plate in a flask (max. 10% volume) up to about 50 ml in growth medium (GM) • 2. Dilute overnight suspension 1:10 in GM • 3. Determine OD600 of diluted bacterial suspension • 4. Dilute bacterial suspension in GM to an OD600 of 0.03-0.04. (6 ml/plate) • 5. Add 200 μl GM to the outer wells (Row A, Row H, Column 1, Column 12) • 6. Add 100 μl GM to each well starting from C2, row 3. • 7. Controls: Wells B2-B4 growth control. Wells B6-B8 blank. Row C growth inhibition control. • 7.1. To wells B2-B4 add: 96 μl GM, 4 μl DMSO, and 100 μl bacterial suspension adjusted to an OD600 of 0.03-0.04. • 7.2. To wells B6-B8 add: 196 μl GM and 4 μl DMSO • 7.3. Dilute a 10 mM Compound 43 (positive control) stock to 800 μM (120 μl/plate) in GM. Add 100 μl of 800 μM Compound 43 solution to well C2. • 8. Samples • 8.1. Dilute the 10 or 100 mM stock solutions to 800 μM (250 μl/plate) in GM. • 8.2. Add 100 μl of 800 μM sample in duplicates to wells D2/E2 resp. F2/G2. • 8.3. 2-fold serial dilution of all samples and Azithromycin • 8.3.1. Rows C-G, Columns 2: Mix and transfer 100 μl from each row to Column 3, and continue until column 11. The remaining 100 μl out of column 11 are disposed. • 9. Add 100 μl of bacterial suspension (OD600 0.03-0.04) to each well from C2-G11. • 10. Incubate plates on shaker, 750 rpm, 37° C., until the growth controls have reached an OD600 of 0.6-0.8 (approximately 6-8 h).
11. Determine OD600 on plate reader.

Setting [1] is: read-out: IC50 (μM) at 2 h, 2 h with compound, washed away, further 70 h incubation.
Where [2] appears, read: 72 h incubation with compound, read-out: IC50 (μM) at 72 h.

In the case of `CC[C@H]1OC(=O)[C@H](C)[C@@H](OC2C[C@@](C)(OC)[C@@H](O)[C@H](C)O2)[C@H](C)[C@@H](OC2O[C@H](C)C[C@H](N(C)C)[C@H]2O)[C@](C)(O)C[C@@H](C)/C(=N/OCc2cc(=O)oc3cc(OC)c(OC)cc23)[C@H](C)[C@@H](O)[C@]1(C)O` (stereo partly drawn) [Compound 3], the intracellular distribution result in the series with white blood cells (polymorphonuclear cells, fluorescent image (FIG. 3)) is reported as “even distribution with some concentration near the nucleus”.

As for `CC[C@H]1OC(=O)[C@H](C)[C@@H](C)[C@H](C)[C@@H](O[C@@H]2O[C@H](C)C[C@@H](N(C)CCOC(=O)CC/C(C)=C/Cc3c(O)c4c(c(C)c3OC)COC4=O)[C@@H]2N(C)C)[C@](C)(O)C[C@@H](C)CN(C)[C@H](C)[C@@H](O)[C@]1(C)O` [Compound 74], the “Ratio (2 h:72 h)” value in the series with lymphocytes was found to be 1.45. Besides, the values for the half-maximal inhibitory concentration (IC50) with lymphocytes (setting [1]) and in the series on lymphocytes (setting [2]) were 3.2 µM and 2.2 µM, respectively.

Consider `COc1cc(C)c(/C(=C\C(C)=O)CC(N)C(=O)O)cc1OC` (stereo not drawn) [Compound 4], for which the uptake speed result in the series with white blood cells (fluorescent compounds, images during uptake) is on record as “uptake is rapid”.

Take `CC[C@H]1OC(=O)[C@H](C)[C@@H](O[C@H]2C[C@@](C)(OC)[C@@H](O)[C@H](C)O2)[C@H](C)[C@@H](O[C@@H]2O[C@H](C)CC(N(C)C)[C@H]2OC(=O)CC/C(C)=C/Cc2c(O)c3c(c(C)c2OC)COC3=O)[C@](C)(O)C[C@@H](C)CN(C)[C@H](C)[C@@H](O)[C@]1(C)O` (stereo partly drawn) [Compound 67]: the “Ratio (2 h:72 h)” value in the series with lymphocytes worked out at 1.3. Besides, the half-maximal inhibitory concentration (IC50) stood at 1.74 µM in the series on lymphocytes (setting [1]) and 1.36 µM in the series on lymphocytes (setting [2]).

Consider `CC[C@H]1OC(=O)[C@H](C)[C@@H](O[C@H]2C[C@@](C)(OC)[C@@H](O)[C@H](C)O2)[C@H](C)[C@@H](O[C@@H]2O[C@H](C)C[C@H](N(C)C)[C@H]2O)[C@](C)(O)C[C@@H](C)CN(C)[C@H](C)[C@@H](O)[C@]1(C)O` [Compound 43, 9a-aza-9a-methyl-9-deoxo-9a-homoerythromycin A, reference compound], for which the “TC50 in E. coli” value in the series on E. coli (DH5α) was 2300 nM.

Regarding `CC[C@H]1OC(=O)[C@H](C)[C@@H](O[C@H]2C[C@@](C)(OC)[C@@H](O)[C@H](C)O2)[C@H](C)[C@@H](O[C@@H]2O[C@H](C)CC(N(C)C(=O)CN(C)CCO)[C@H]2O)[C@](C)(O)C[C@@H](C)CN(C)[C@H](C)[C@@H](O)[C@]1(C)O` (stereo partly drawn) [Compound 45], the “TC50 in E. coli” value in the series on E. coli (DH5α) was >50000 nM.

As for `CC[C@H]1OC(=O)[C@H](C)C(=O)[C@H](C)[C@@H](O[C@@H]2O[C@H](C)C[C@H](N(C)C)[C@H]2OC(=O)Cc2ccccc2Nc2c(Cl)cccc2Cl)[C@](C)(O)C[C@@H](C)CN(C)[C@H](C)[C@@H](O)[C@]1(C)O` [Compound 53], the “TC50 in E. coli” value with E. coli (DH5α) is >50000 nM.

`CCOC(=O)CC/C(C)=C/Cc1c(CC(=O)CCC(=O)O[C@@H]2C(N(C)C)C[C@@H](C)O[C@H]2O[C@@H]2[C@@H](C)[C@H](O[C@H]3C[C@@](C)(OC)[C@@H](O)[C@H](C)O3)[C@@H](C)C(=O)O[C@H](CC)[C@@](C)(O)[C@H](O)[C@@H](C)N(C)C[C@H](C)C[C@@]2(C)O)c2c(c(C)c1OC)COC2=O` (stereo partly drawn) [Compound 69]: the “Ratio (2 h:72 h)” value in the series with lymphocytes came out at 1.9. In addition, the IC50 in the series with lymphocytes (setting [1]) came out at 2.66 µM; with lymphocytes (setting [2]) it was 1.4 µM.

For the compound `CC[C@H]1OC(=O)[C@H](C)C(=O)[C@H](C)[C@@H](O[C@@H]2O[C@H](C)CC(N(C)C)[C@H]2O)[C@](C)(O)C[C@@H](C)CN(C)[C@H](C)[C@@H](O)[C@]1(C)O` (stereo partly drawn) [Compound 40], in the series on E. coli (DH5α), the “TC50 in E. coli” value is >50000 nM.
